Test results: patent US20070191490A1, “Withacnistin compounds for treatment of cancer” (priority 2006, published 2007)
Where two headings read alike, the source gives them in different places.

Legend:
phospho-Src = phospho-Src levels in A549 cells (Western blotting); format: cell-based, human; settings: 10 μM, 4 hours
Procedure: (§1) Western blotting. Treated cell samples were lysed in 30 mM HEPES, pH 7.5, 10 mM NaCl, 5 mM MgCl2, 25 mM NaF, 1 mM EGTA, 1% Triton X-100, 10% glycerol, 2 mM sodium orthovanadate, 10 μg/ml aprotinin, 10μ/ml soybean trypsin inhibitor, 25 μg/ml leupeptin, 2 mM PMSF, and 6.4 mg/ml p-nitrophenylphosphate. Phospho-STAT3, phospho-AKT, phospho-Src, and phospho-p42/p44 MAPK antibodies were obtained from Cell Signaling Technologies (Cambridge, Mass., USA). Phospho-JNK and whole STAT3 antibodies were purchased from Santa Cruz Biotechnology (Santa Cruz, Calif., USA); phospho-JAK2 antibody came from Upstate Biotechnology (Lake Placid, N.Y., USA). Membranes were blocked in either 5% milk in phosphate-buffered saline (PBS), pH 7.4, containing 0.1% Tween-20 (PBS-T) or 1% BSA in tris-buffered saline (TBS), pH 7.5, containing 0.1% Tween-20 (TBS-T). Phospho-specific antibodies (excepting P-MAPK and P-JNK) were incubated in 1% BSA in TBS-T while all other antibodies were diluted in 5% milk in PBS-T for either 2 h at room temperature or overnight at 4° C. HRP-conjugated secondary antibodies (Jackson ImmunoResearch, West Grove, Pa., USA) were diluted in 5% milk in either PBS-T or TBS-T at 1:1000 dilution for 1 h at room temperature. […]
(§2) It was next determined whether withacnistin and the Cuc analogs are selective for the JAK2/STAT3 pathway over other signal transduction pathways. […]

phospho-JNK = phospho-JNK levels in A549 cells (Western blotting); format: cell-based, human; settings: 10 μM, 4 hours
Procedure: as §1, §2

phospho-Akt = phospho-Akt levels in A549 cells (Western blotting); format: cell-based, human; settings: 10 μM, 4 hours
Procedure: as §1, §2

Src kinase [1] = biological target: T1, Src kinase (Homo sapiens, UniProt P12931); settings: Blaskovich et al. 2003; cited from earlier work
phospho-Erk1/2 = phospho-Erk1/2 levels in A549 cells (Western blotting); format: cell-based, human; settings: 10 μM
Procedure: as §1, §2

MDA-MB-435 cells = test: TUNEL apoptosis assay, MDA-MB-435; format: cell-based, human; settings: 10 μM withacnistin mixture, 24 hours
Procedure: (§3) In vitro cellular proliferation and TUNEL assays. Subconfluent A549, MDA-MB-435, MDA-MB-453, MDAMB-468, v-Src transformed NIH 3T3 (v-Src/3T3), H-Ras transformed NIH 3T3 (H-Ras/3T3), and vector NIH 3T3 cells were grown in the presence of 10 μM cucurbitacin A, cucurbitacin I, withacnistin mixture, or DMSO vehicle control. After 24 hours, cells were harvested by trypsinization and counted via trypan blue exclusion assay to determine cellular viability. In all, 75,000-150,000 cells (depending on cell line) were then spun onto glass slides using a Cytospin 3 centrifuge (Thermo Shandon Inc., Pittsburgh, Pa., USA). After fixing cells to the slides with 4% paraformaldehyde in PBS, pH 7.5, for 1 h at room temperature, cells were labeled for apoptotic DNA strand breaks by TUNEL reaction using an in situ cell death detection kit (Roche Applied Science, Indianapolis, Ind., USA) according to the manufacturer's instructions, then mounted in Vectashield mounting medium (Vector Laboratories, Burlingame, Calif., USA) containing 4′,6-diamidino-2-phenylindole (DAPI) to counterstain DNA. […] TUNELpositive nuclei were counted and compared to DAPI-stained nuclei to determine the percent induction of apoptosis by the different cucurbitacin compounds. Statistical significance between control and treated tumors were evaluated by using Student's t-test. […]

vector/3T3 cells = test: TUNEL apoptosis assay, vector NIH 3T3; format: cell-based, murine; settings: 10 μM withacnistin mixture, 24 hours
Procedure: as §3

Src kinase [2] = biological target: T1, Src kinase; test: Src kinase inhibition in vitro; format: biochemical; settings: data not shown
Description: The actual biochemical targets for cucurbitacins are not known. […] Possible tyrosine kinases that could be targets are the Src family of kinases. Src kinase itself was not inhibited in vitro by Cuc I (Blaskovich, M. A. et al. Cancer Res., 2003, 63:1270-1279) and withacnistin (data not shown).

STAT3 = biological target: T2, STAT3 (Homo sapiens, UniProt P40763); test: Growth factor/cytokine stimulation of STAT3 tyrosine phosphorylation; format: cell-based
T2 construct: endogenous in cells; host or cells: U266; MDA-MB-468
Procedure: (§4) Furthermore, it is not know whether Wit suppresses constitutive or stimulated P-STAT3 levels selectively over other STAT family members such as STAT1 and STAT5. To this end, a variety of human cancer cell lines were treated with Wit and stimulated with growth factors or cytokines known to activate STAT family members as described under Methods. […] Pretreatment of U266 cells with W or WM blocked this IL-6 activation of STAT3 in a dose-dependent manner. In contrast, IL-6 activation of STAT1 in these cells was not affected by Wit pretreatment (FIG. 9B).

STAT1 = test: Growth factor/cytokine stimulation of STAT1 tyrosine phosphorylation; format: cell-based, human; settings: U266 cells, pretreatment
Procedure: as §4

phosphotyrosine-STAT3 = test: Inhibition of phosphotyrosine-STAT3 levels in tumor cell lines (Western blotting); format: cell-based, human; settings: A549 cells, by 24 hours; data not shown

T2 sequence (P40763 2-770 limits assumed): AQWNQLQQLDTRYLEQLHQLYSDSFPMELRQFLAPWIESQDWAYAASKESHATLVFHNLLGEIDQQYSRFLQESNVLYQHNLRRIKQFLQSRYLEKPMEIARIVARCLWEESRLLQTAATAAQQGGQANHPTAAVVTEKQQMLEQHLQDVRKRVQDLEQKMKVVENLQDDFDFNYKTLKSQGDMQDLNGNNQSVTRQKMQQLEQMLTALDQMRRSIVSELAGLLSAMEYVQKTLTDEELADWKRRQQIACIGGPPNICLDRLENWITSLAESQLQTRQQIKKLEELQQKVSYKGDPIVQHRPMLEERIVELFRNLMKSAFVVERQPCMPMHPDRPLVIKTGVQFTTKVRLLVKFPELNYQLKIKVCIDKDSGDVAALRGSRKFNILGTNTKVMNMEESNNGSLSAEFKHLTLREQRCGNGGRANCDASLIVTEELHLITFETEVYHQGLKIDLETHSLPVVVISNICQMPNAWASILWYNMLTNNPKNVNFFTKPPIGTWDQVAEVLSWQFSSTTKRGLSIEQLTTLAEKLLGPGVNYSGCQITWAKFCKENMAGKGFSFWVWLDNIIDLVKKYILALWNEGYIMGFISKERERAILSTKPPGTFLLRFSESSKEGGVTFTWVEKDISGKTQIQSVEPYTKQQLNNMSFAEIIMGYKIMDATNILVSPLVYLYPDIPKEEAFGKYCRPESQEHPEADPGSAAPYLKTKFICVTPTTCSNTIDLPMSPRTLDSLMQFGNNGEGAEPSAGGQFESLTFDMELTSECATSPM
T1 sequence (P12931 whole entry): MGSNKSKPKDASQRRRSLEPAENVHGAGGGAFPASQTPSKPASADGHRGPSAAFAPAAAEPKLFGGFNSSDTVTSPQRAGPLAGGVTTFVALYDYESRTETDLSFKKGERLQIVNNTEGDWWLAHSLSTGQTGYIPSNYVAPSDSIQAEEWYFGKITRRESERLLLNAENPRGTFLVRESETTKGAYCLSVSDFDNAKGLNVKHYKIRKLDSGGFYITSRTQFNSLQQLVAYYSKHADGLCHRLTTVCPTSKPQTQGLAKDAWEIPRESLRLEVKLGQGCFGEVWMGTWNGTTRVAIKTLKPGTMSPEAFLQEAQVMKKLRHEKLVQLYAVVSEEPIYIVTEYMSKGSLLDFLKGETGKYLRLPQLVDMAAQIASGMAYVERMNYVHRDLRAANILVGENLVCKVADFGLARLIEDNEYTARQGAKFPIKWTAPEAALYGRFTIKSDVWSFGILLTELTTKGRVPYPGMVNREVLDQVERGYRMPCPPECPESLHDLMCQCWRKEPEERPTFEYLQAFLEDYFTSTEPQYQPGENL

CC(=O)OC(C)(C)/C=C/C(=O)[C@](C)(O)[C@H]1[C@H](O)C[C@@]2(C)[C@@H]3CC=C4[C@@H](C[C@H](O)C(=O)C4(C)C)[C@]3(CO)C(=O)C[C@]12C [Cuc A, cucurbitacin A]
phosphotyrosine levels of Src (phospho-Src): little inhibitory activity | phosphotyrosine levels of JNK1 (phospho-JNK): little inhibitory activity | phosphotyrosine levels of Akt (phospho-Akt): little inhibitory activity

CC(C)(O)/C=C/C(=O)[C@](C)(O)[C@H]1[C@H](O)C[C@@]2(C)[C@@H]3CC=C4[C@@H](C=C(O)C(=O)C4(C)C)[C@]3(C)C(=O)C[C@]12C [Cuc I, cucurbitacin I]
inhibition of Src kinase in vitro (Src kinase [1]): not inhibited

CC(=O)OC[C@]12CC[C@H]3[C@@H](C[C@H]4O[C@]45[C@@H](O)C=CC(=O)[C@]35C)[C@@H]1CC[C@@H]2[C@H](C)[C@H]1CC(C)=C(C)C(=O)O1 [withacnistin]
levels of phosphorylated Erk1/2 (phospho-Erk1/2): significantly increased | increase of percentage of apoptotic cells compared to vehicle control (MDA-MB-435 cells): 25.9 fold | apoptosis (TUNEL-positive cells) (vector/3T3 cells): 7.3±3.9% | fold increase of apoptosis over control (vector/3T3 cells): 4.2 fold | inhibition of Src kinase in vitro (Src kinase [2]): not inhibited | EGF activation of STAT3 (STAT3; MDA-MB-468 cells): inhibited | IL-6 activation of STAT3 (tyrosine phosphorylation) (STAT3; U266 cells, pretreatment, dose-dependent): blocked | PDGF-stimulated tyrosine phosphorylation of STAT3 (STAT3; pretreatment (FIG. 9D)): inhibited | IL-6 activation of STAT1 (STAT1): not affected | P-STAT3 levels (phosphotyrosine-STAT3): suppressed
